System: pancreatic lymph nodes (PLN) CD4 and CD8 T cells of humanized T1D mice
Test: In-vitro CFSE proliferation assay of pancreatic lymph node T cells stimulated with rGAD65
Assay type: cell-based
Settings: pulse stimulation 4 ug/ml for 4 days; PLN single cell suspension of diabetic mouse; CFSE tracking
Procedure: FIG. 6C: rGAD65 induced proliferation of CD4 and CD8 cells, pancreatic lymph nodes (PLN) were isolated from humanized T1D mice and were stimulated with GAD65 (4 μg/ml) for 4 days (n=4). The proliferation of cells were tracked using CFSE and analyzed by FLOWJO V10 Beta software using fix ratio, fix CV and fix background from the un-stimulated cells.
The diabetogenic T cells are auto-antigen specific in nature. The pancreatic lymph nodes (PLN) of a diabetic mouse were isolated and the single cell suspension was stimulated with recombinant human GAD65 protein (4 ug/ml). In-vitro proliferation assay using carboxyfluorescein succinimidyl ester (CFSE) to track the T cell proliferation was performed. Pulse stimulation with human rGAD65 (4 ug/ml) for 4 days increased the CD4 and CD8 proliferation by 9-10 folds (FIG. 6C).

human rGAD65: recombinant human Glutamic Acid Decarboxylase 65 protein used as autoantigen stimulus
increase of CD4 and CD8 proliferation: 9-10 folds
